{"source": "patent US10563272B2", "about": "“Compositions comprising Metarhizium fungi and use thereof as a pesticide” (Cotton Research and Development Corporation, priority 2015, dated 2020)", "key": {"[1]": {"tested_on": "Bemisia tabaci b-type adults and nymphs", "assay": "Rate trial on Bollgard cotton, Cooinda St George 2011-2012 (Example 13): silverleaf whiteflies", "assay_type": "in vivo", "settings": "P<0.001; FIG. 50", "method": "This trial was conducted on an irrigated Bollgard cotton crop on a commercial cotton farm at Cooinda, St George, Queensland, in 2011-2012.\n(§1) The following treatments were evaluated against Bemisia tabaci b-type adults and nymphs: • 1. 250 mL/ha DAT 511 spore in oil (1×10^7 spores/ml); • 2. 500 mL/ha DAT 511 spore in oil (1×10^7 spores/ml); • 3. 1 L/ha DAT 511 spore in oil (1×10^7 spores/ml); • 4. 500 mL/ha Pyriproxyfen (conventional insecticide); and • 5. Unsprayed (control).\n(§2) The treatment plots were arranged in a randomized complete block design with three replicates per treatment. Each replicated plot measured 40 m wide (40 rows) and 90 m long.\nFoliar applications of each treatment were made on 12 Mar. and 26 Mar. 2012. […] On each sampling date, 20 plants from each replicate were randomly selected and B. tabaci adults on one leaf from the 5th node below the terminal of each plant were counted. […]\n(§3) In the case of nymphs, one leaf from the 5th node below the terminal of each of the 20 plants was cut, removed and carefully placed individually in a plastic bag. The plastic bags containing the leaves were taken to the laboratory and the B. tabaci nymphs were counted under a binocular microscope. Data of both adults and nymphs were expressed as numbers per leaf per treatment."}, "[2]": {"tested_on": "Bemisia tabaci b-type adults and nymphs", "assay": "Rate trial on Bollgard II cotton, Norwood 2011-2012 (Example 11): silverleaf whiteflies", "assay_type": "in vivo", "settings": "DAT 511 250 mL, 500 mL, 1 L/ha; Pyriproxyfen 500 mL/ha; P<0.001", "method": "This trial was conducted on an irrigated Bollgard II® cotton crop on a commercial cotton farm at Norwood near Moree, NSW, in 2011-2012.\nas §1, §2\nFoliar applications of each treatment were made on 28 Feb. and 20 Mar. 2012. […] On each sampling date, 20 plants from each replicate were randomly selected and B. tabaci adults on one leaf from the 5th node below the terminal of each plant were counted. […]\nas §3"}}}
{"compound": "CC(COc1ccc(Oc2ccccc2)cc1)Oc1ccccn1", "note": "(centres unmarked) [Pyriproxyfen]", "values": [{"measurement": "silverleaf whitefly adults and nymphs versus unsprayed plots", "setting": "[1]", "result": "Significantly fewer"}, {"measurement": "SLW adults and nymphs versus the unsprayed", "setting": "[2]", "result": "fewer"}]}
